Measurements reported in US10975068B2, “6-aminopyridin-3-yl thiazoles as modulators of RORγT” (Janssen Pharmaceutica NV, priority 2016, dated 2021).
Where two headings read alike, the source gives them in different places.

How the values were obtained:
[1] = target: human RORγt ligand binding domain (RORγt LBD) (Homo sapiens (Human), UniProt P51449); test: RORγt ThermoFluor® assay (thermal shift binding); conditions: read-out: ThermoFluor® Assay, Kd
Outline: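 Binding was inferred from thermal stabilisation (ΔTm) of the E. coli-expressed RORγt LBD (0.065 mg/mL), monitored by 1,8-ANS (60 μM) emission at 500 nm during a 1 °C/min ramp. Buffer was Hepes 100 mM pH 7.0 with NaCl, GSH and Tween-20.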

full-length human RORγt = full-length human RORγt (Homo sapiens (Human), UniProt P51449); test: RORγt (full-length human) reporter assay, Conditions B or C; format: cell-based; conditions: for RORγt (FL) Reporter Assay B or C, % inhibition (value marked *): marked *: footnote not given; for inhibition at 3 µM: at 3 μM compound concentration, read-out: RORγt (FL) Reporter Assay B or C, % inhibition
Outline: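 Readout is dual luciferase: firefly (GAL4-driven) normalized to DMSO-only and saturating-reference controls, then to CMV-Renilla. Full-length human RORγt fused to GAL4-DBD was transiently expressed in HEK293T; compound exposure ran overnight (16-20 h) starting 4-6 h after transfection, final FBS 1.3%, DMSO 0.1%.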

[2] = Conditions B or C, read-out: RORγt (FL) Reporter Assay B or C, IC50
[3] = read-out: RORγt (FL) Reporter Assay B or C, IC50

full-length human RORγt, sequence (P51449 other isoform, or with tags, fused parts or gaps): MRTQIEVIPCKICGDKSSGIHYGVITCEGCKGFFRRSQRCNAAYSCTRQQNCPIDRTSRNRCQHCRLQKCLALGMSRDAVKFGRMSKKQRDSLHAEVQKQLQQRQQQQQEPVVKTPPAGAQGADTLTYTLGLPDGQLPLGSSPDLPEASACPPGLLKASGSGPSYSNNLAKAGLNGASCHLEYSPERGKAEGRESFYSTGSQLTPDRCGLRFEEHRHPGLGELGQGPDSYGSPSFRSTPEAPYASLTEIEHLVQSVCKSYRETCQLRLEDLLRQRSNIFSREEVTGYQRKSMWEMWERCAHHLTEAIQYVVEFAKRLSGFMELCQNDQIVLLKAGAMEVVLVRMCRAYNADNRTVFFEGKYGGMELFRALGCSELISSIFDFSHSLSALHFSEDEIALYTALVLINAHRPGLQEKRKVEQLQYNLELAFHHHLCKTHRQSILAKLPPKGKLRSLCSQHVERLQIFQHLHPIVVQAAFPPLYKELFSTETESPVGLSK
human RORγt ligand binding domain (RORγt LBD), sequence (P51449 other isoform, or with tags, fused parts or gaps): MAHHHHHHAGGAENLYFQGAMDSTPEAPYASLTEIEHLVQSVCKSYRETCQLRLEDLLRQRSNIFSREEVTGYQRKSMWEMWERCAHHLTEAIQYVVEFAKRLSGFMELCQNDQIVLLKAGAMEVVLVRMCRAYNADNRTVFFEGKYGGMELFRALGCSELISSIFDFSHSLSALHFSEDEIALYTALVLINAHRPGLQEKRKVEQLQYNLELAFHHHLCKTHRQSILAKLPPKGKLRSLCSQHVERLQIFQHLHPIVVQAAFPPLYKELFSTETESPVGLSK

SMILES	Kd [1] [nM]	RORγt (FL) Reporter Assay B or C, % inhibition (value marked *) (full-length human RORγt; Conditions B or C)	IC50 (full-length human RORγt; [2]) [µM]	IC50 (full-length human RORγt; RORγt (FL) Reporter Assay B or C, IC50 (μM), Conditions B or C) [µM]	inhibition at 3 µM (full-length human RORγt) [%]	IC50 (full-length human RORγt; [3]) [µM]	RORγt (FL) Reporter Assay B or C, % inhibition (value marked ***) (full-length human RORγt; Conditions B or C, marked ***: footnote not given)	inhibition at 6 µM (full-length human RORγt; read-out: RORγt (FL) Reporter Assay B or C, % inhibition @ 6 μM, Conditions B or C, @ 6 μM) [%]
CCC(C)(C)Nc1cc(C(F)F)c(-c2sc(C(=O)NCC(C)(C)O)nc2C(=O)N2CCCC[C@@H]2C)cn1 [Example 95, (S)-5-(4-(Difluoromethyl)-6-(tert-pentylamino)pyridin-3-yl)-N-(2-hydroxy-2-methylpropyl)-4-(2-methylpiperidine-1-carbonyl)thiazole-2-carboxamide]	0.15	109* %	0.0095					
CCC(C)(C)Nc1cc(C(F)(F)F)c(-c2sc(C(=O)NCC(C)(C)O)nc2C(=O)N2CCCC[C@@H]2C)cn1 [Example 108, (S)—N-(2-Hydroxy-2-methylpropyl)-4-(2-methylpiperidine-1-carbonyl)-5-(6-(tert-pentylamino)-4-(trifluoromethyl)pyridin-3-yl)thiazole-2-carboxamide]	0.07	104* %	0.047					
C[C@H](Nc1cc(C(F)(F)F)c(-c2sc(C(=O)NCC(C)(C)O)nc2C(=O)N2C3CCC2CC3)cn1)C(F)(F)F [Example 82, 4-((1s,4s)-7-Azabicyclo[2.2.1]heptane-7-carbonyl)-N-(2-hydroxy-2-methylpropyl)-5-(4-(trifluoromethyl)-6-(((S)-1,1,1-trifluoropropan-2-yl)amino)pyridin-3-yl)thiazole-2-carboxamide]	4.8	117* %		0.079				
C[C@H]1CCCN1C(=O)c1nc(C(=O)N[C@H]2CCC[C@@H]2O)sc1-c1cnc(NC(C)(C)C)cc1C(F)F [Example 396, 5-[6-(tert-Butylamino)-4-(difluoromethyl)-3-pyridyl]-N-[(1S,2S)-2-hydroxycyclopentyl]-4-[(2S)-2-methylpyrrolidine-1-carbonyl]thiazole-2-carboxamide]	1.1				96	0.021		
C[C@@H](Nc1cc(C(F)F)c(-c2sc(C(=O)NCC(C)(C)O)nc2C(=O)N2CCC[C@@H]2C)cn1)C1CC1 [Example 50, 5-(6-(((R)-1-Cyclopropylethyl)amino)-4-(difluoromethyl)pyridin-3-yl)-N-(2-hydroxy-2-methylpropyl)-4-((S)-2-methylpyrrolidine-1-carbonyl)thiazole-2-carboxamide]	71	100* %	0.058					
CCC(C)(C)Nc1cc(C(F)(F)F)c(-c2sc(C(=O)NCC(C)(C)O)nc2C(=O)N2CCC[C@@H]2C)cn1 [Example 109, (S)—N-(2-Hydroxy-2-methylpropyl)-4-(2-methylpyrrolidine-1-carbonyl)-5-(6-(tert-pentylamino)-4-(trifluoromethyl)pyridin-3-yl)thiazole-2-carboxamide]	0.53	124* %	0.018					
CC[C@H](Nc1cc(C(F)F)c(-c2sc(C(=O)N[C@@H]3CC[C@H]3O)nc2C(=O)N2CCC[C@@H]2C)cn1)C(F)(F)F (relative stereo) [Example 376, 5-(4-(Difluoromethyl)-6-(((S)-1,1,1-trifluorobutan-2-yl)amino)pyridin-3-yl)-N-((1R*,2R*)-2-hydroxycyclobutyl)-4-((S)-2-methylpyrrolidine-1-carbonyl)thiazole-2-carboxamide]	3.8				101	0.06		
CC(C)(C)CNc1cc(C(F)(F)F)c(-c2sc(C(=O)NCC(C)(C)O)nc2C(=O)N2C3CCC2CC3)cn1 [Example 84, 4-((1s,4s)-7-Azabicyclo[2.2.1]heptane-7-carbonyl)-N-(2-hydroxy-2-methylpropyl)-5-(6-(neopentylamino)-4-(trifluoromethyl)pyridin-3-yl)thiazole-2-carboxamide]	1.2	136* %	0.018					
CC[C@H](Nc1cc(C(F)F)c(-c2sc(C(=O)N[C@H](C)CO)nc2C(=O)N2CCC[C@@H]2C)cn1)C(F)(F)F [Example 234, 5-[4-(Difluoromethyl)-6-[[(1S)-1-(trifluoromethyl)propyl]amino]-3-pyridyl]-N-[(1R)-2-hydroxy-1-methyl-ethyl]-4-[(2S)-2-methylpyrrolidine-1-carbonyl]thiazole-2-carboxamide]	5.2	116* %	0.042					
CC[C@H](Nc1cc(C(F)F)c(-c2sc(C(=O)N[C@H]3CCC[C@@H]3O)nc2C(=O)N2CCC[C@@H]2C)cn1)C(F)(F)F [Example 229, 5-(4-(Difluoromethyl)-6-(((1S)-1-(trifluoromethyl)propyl)amino)-3-pyridyl)-N-((1S,2S)-2-hydroxycyclopentyl)-4-((2S)-2-methylpyrrolidine-1-carbonyl)thiazole-2-carboxamide]	0.97	83* %	0.042					
C[C@H]1CC(F)(F)CN1C(=O)c1nc(C(=O)NCC(C)(C)O)sc1-c1cnc(NC(C2CC2)C2CC2)cc1C(F)(F)F [Example 138, (S)-5-(6-((Dicyclopropylmethyl)amino)-4-(trifluoromethyl)pyridin-3-yl)-4-(4,4-difluoro-2-methylpyrrolidine-1-carbonyl)-N-(2-hydroxy-2-methylpropyl)thiazole-2-carboxamide]	0.62		0.012				100*** %	
C[C@H]1CCCN1C(=O)c1nc(C(=O)N[C@H]2C[C@H](O)C2)sc1-c1cnc(NC(C)(C)C)cc1C(F)(F)F [Example 258, 5-[6-(tert-Butylamino)-4-(trifluoromethyl)-3-pyridyl]-N-((1r,3S)-3-hydroxycyclobutyl)-4-[(2S)-2-methylpyrrolidine-1-carbonyl]thiazole-2-carboxamide]	3.5				110	0.065		
CC[C@@H](Nc1cc(C(F)F)c(-c2sc(C(=O)NCC(C)(C)O)nc2C(=O)N2CCC[C@@H]2C)cn1)C1CC1 (relative stereo) [Example 167, 5-(6-(((R*)-1-Cyclopropyl)amino)-4-(difluoromethyl)pyridine-3-yl)-N-(2-hydroxy-2-methylpropyl)-4-((S)-2-methylpyrrolidine-1-carbonyl)thiazole-2-carboxamide]	3.7	100* %	0.12					
CC[C@@H](Nc1cc(C(F)F)c(-c2sc(C(=O)N[C@H]3C[C@H](O)C3)nc2C(=O)N2CCC[C@@H]2C)cn1)C(F)(F)F [Example 205, 5-(4-(Difluoromethyl)-6-(((1R)-1-(trifluoromethyl)propyl)amino)-3-pyridyl)-N-((1r,3S)-3-hydroxycyclobutyl)-4-((2S)-2-methylpyrrolidine-1-carbonyl)thiazole-2-carboxamide]	6.8	103* %	0.033					
C[C@H]1CCCCN1C(=O)c1nc(C(=O)NCC(C)(C)O)sc1-c1cnc(N[C@H](C)C(F)(F)F)cc1C(F)(F)F [Example 45, N-(2-Hydroxy-2-methylpropyl)-4-((S)-2-methylpiperidine-1-carbonyl)-5-(4-(trifluoromethyl)-6-(((R)-1,1,1-trifluoropropan-2-yl)amino)pyridin-3-yl)thiazole-2-carboxamide]	0.62		0.01					111
